Like-named read-outs stand apart in the source and are kept apart here.
Key:
[1] = Solubility tests in different vehicles (HPLC); type: physicochemical; settings: 26 °C, thermodynamic from solid, room temperature 25 to 27° C.
Procedure: Samples (about 2 mg) (if the sample was a salt, the required amount of the salt was calculated according to the salt factor in accordance with the criterion that the compound of formula (I) was 2 mg) were weighed respectively and added to a 1.5 mL glass vial. Different vehicles (1 mL) were then added respectively. The above-mentioned suspension was placed on a magnetic stirrer for stirring (room temperature 25 to 27° C.). After stirring for 24 hours, samples were taken. The samples were first centrifuged, and the supernatants were taken. After appropriate dilution according to the situation of the dissolution, the concentrations were determined by HPLC. The results were as follows:
Notes: • FaSSIF: to simulate the intestinal fluid in the small intestine of human in a hunger state before meal; • FeSSIF: to simulate the intestinal fluid in the small intestine of human in a full state after meal; • SGF: to simulate the gastric juice in the empty stomach of human in a hunger state

[2] = Study on the polymorphs of compound WX_1 (XRPD after treatment in solvents); type: physicochemical
From the text: The solution was centrifuged to obtain a precipitate, which was dried and then subjected to an XRPD detection.

[3] = test system: MCF-7 breast cancer cells; assay: Inhibition assay of the A crystal form of WX_1 on MCF-7 breast cancer cell proliferation (CellTiter-Glo); type: cell-based; settings: Homo sapiens, MCF7, 144 h; MCF-7 cells, 6 days
Procedure: RPMI 1640 medium, fetal bovine serum and penicillin/streptomycin as antibiotics were purchased from Promega (Madison, Wis.). The MCF-7 cell line was purchased from the European Collection of Authenticated Cell Cultures (ECACC). Envision MultiLabel Plate Reader (PerkinElmer).
MCF-7 cells were seeded in a black 384-well plate with 45 μL of cell suspension (containing 200 MCF-7 cells) per well. The cell plate was placed in a carbon dioxide incubator for overnight culture.
The test compounds were diluted 3 times to the 10th concentration with Bravo, i.e., diluted from 10 μM to 0.508 nM, and a duplicate-well experiment was set. The medium was added to the middle plate in an amount of 49 μL per well. The gradient-diluted compounds were transferred in an amount of 1 μL per well to the middle plate according to the corresponding positions, and the mixture was mixed evenly and transferred to the cell plate in an amount of 5 μL per well. The cell plate was incubated in a carbon dioxide incubator for 6 days.
Promega CellTiter-Glo reagent was added to the cell plate in an amount of […] per well, and incubated for 10 minutes at room temperature to stabilize the luminescence signal. Reading was performed using a PerkinElmer Envision Multilabel Plate Reader.

## CC(C)c1c2cc(-c3nc(Nc4ccc(N5CCNCC5)cn4)ncc3F)ccc2nn1C.O=C(O)/C=C\C(=O)O [A crystal form of compound WX_1]
[1]; simulated gastric fluid, SGF, read-out: Solubility SGF
  solubility at 24 h: > 2000 µg/mL
[1]; FaSSIF, read-out: Solubility FaSSIF
  solubility at 24 h: 23 µg/mL
[1]; FeSSIF, read-out: Solubility FeSSIF
  solubility at 24 h: 1600 µg/mL
[1]; water, water, H2O, read-out: Solubility H2O
  solubility at 24 h: 1140 µg/mL
[2]; acetone, 40° C. in the dark for 2 days
  Crystal form: A crystal form
[2]; acetone-water (1:2), Volatilization of supernatant
  Crystal form: amorphous (Volatilization)
[2]; ethanol, 40° C. in the dark for 2 days
  Crystal form: A crystal form
[2]; ethanol-water (3:1), Volatilization of supernatant
  Crystal form: amorphous (Volatilization)
[2]; ethyl acetate, 40° C. in the dark for 2 days
  Crystal form: A crystal form
[2]; isopropanol, 40° C. in the dark for 2 days
  Crystal form: A crystal form
[2]; isopropanol-water (1:1), Volatilization of supernatant
  Crystal form: A crystal form
[2]; methanol, 40° C. in the dark for 2 days
  Crystal form: A crystal form
[2]; methanol-water (3:1), 40° C. in the dark for 2 days
  Crystal form: A crystal form
[3]
  IC50: 70 nM
